{
  "source": "patent US20240425808A1",
  "about": "“A METHOD FOR RAPID GENERATION OF 3D ORGANOTYPIC CELL CLUSTERS” (THE TRUSTEES OF INDIANA UNIVERSITY, priority 2022, published 2024)",
  "format_in_all_cases": "cell-based, human",
  "key": {"[1]": {"test_system": "tumor cells within RCC derived APCCs", "assay": "Tumor cell death within APCCs by time-lapse imaging", "settings": "24-hour time lapse, anti-PD1 5 μg/mL", "protocol": "To evaluate the preservation of MDSC viability inside APCCs, initial tests were performed with renal cell carcinoma (RCC) primary tumors from patients. For MDSC study, the CD15+ cells were first isolated from dissociated patient tumor cells via magnetic microbeads, which consist of tumor infiltrating neutrophils including immunosuppressive polymorphonuclear myeloid derived suppressor cells (PMN-MDSCs). The CD15+ cells were pre-labelled with DiL membrane dyes (shown as yellow). T cells were isolated via a 1:1 mixture of CD4 and CD8 microbeads and pre-labeled the T cells with DiO membrane dyes. The CD15+, CD4+, CD8+ depleted dissociated tumor cells were labeled with the blue CMAC cell tracker dye. Membrane impermeable cell nucleus staining NucRed dead 647 was added to indicate cell death. The cell death of the CD15+ cells was calculated by analyzing co-localization of Dil labeled MDSCs and NucRed cell death indicator dye over time-lapse imaging (FIG. 2A).\nMDSC-targeting drugs alone and/or in combination with ICIs. […] The tumor cell death over a 24-hour time lapse was observed. […]\nDigested tumor cells were equally divided into 3 tubes. […] Before acoustic assembly, 1 drop of NucRed Dead 647 ReadyProbes (Invitrogen) was added to 1 milliter of cell suspensions and left in medium to visualize cell death over time. […]"}, "TNF-α": {"test_system": "TNF-α", "assay": "ELISA analysis of TNF-α in APCC culture supernatants", "settings": "n=3", "protocol": "(§1) The levels of TNF-α and IFN-γ were elevated in the APCCs treated with anti-PD1. […] (FIG. 4B).\n(§2) Cabozantinib (SelleckChem) was added at 10 μM to the APCCs.\n(§3) To perform cytokine analysis on the APCCs and 2D tumor cultures, 50 μL supernatants were pipetted out of the culture vessel and centrifuged at 10,000 g for 10 minutes to remove cell debris. The supernatants were then analyzed by human TNF-α or IFN-γ kits (Tribioscience)."}, "IFN-γ": {"test_system": "IFN-γ", "assay": "ELISA analysis of IFN-γ in APCC culture supernatants", "settings": "n=3", "protocol": "as §1, §2, §3"}, "[2]": {"test_system": "TNF-α gene expression in CD4/CD8+ T cells", "assay": "qRT-PCR of TNF-α expression in CD4/CD8+ T cells isolated from APCCs", "settings": "n=3", "protocol": "as §2\n(§4) For qRT-PCR analysis of the CD15+ cells and CD4/8+ T cells, CD15+ cells or CD4/8+ T cells were pre-labeled by CD15 or CD4-and-CD8 (1:1) magnetic beads for 15 minutes at 4° C. respectively before mixed with other tumor cells for acoustic assembly. The CD15+ cells or CD4/8+ T cells with the labeling beads were then assembled into APCCs. To analyze their gene expression profiles, the APCCs were digested by with cell recovery solution (Corning), and input onto MACS columns (Miltenyi) for positive magnetic separation to isolate pure CD15+ cells or T cells (CD4+ or CD8+). The purified CD15+ cells or CD4/8+ T cells were then lysed for RNA extraction by RNeasy Mini Kit (Qiagen), reverse transcribed to cDNA by High-Capacity cDNA Reverse Transcription Kit (Applied Biosystems), and analyzed using corresponding primer pairs (Table 2) and SYBR Green PCR Master Mix (Applied Biosystems). The samples were run on a StepOne Real Time PCR machine (Applied Biosystems) to quantify signals. The results were analyzed using AACt method for fold change analysis."}, "[3]": {"test_system": "IFN-γ gene expression in CD4/CD8+ T cells", "assay": "qRT-PCR of IFN-γ expression in CD4/CD8+ T cells isolated from APCCs", "settings": "n=3", "protocol": "as §2, §4"}, "[4]": {"settings": "APCCs without CD15+ cells, 24 hours post-treatment"}, "[5]": {"settings": "T cells isolated from APCCs 24 hours post-treatment"}},
  "data": [
    {"substance": "Pembrolizumab [anti-PD1]", "values": [
      {"measurement": "increase in tumor cell death as compared to untreated control", "setting": "[1]; APCCs from 3 RCC patient primary tumors, Cabozantinib 10 μM", "result": "about 17.0%±9.4%"},
      {"measurement": "increase in tumor cell death as compared to untreated control, APCCs without CD15+ cells", "setting": "[1]; APCCs without CD15+ cells (MDSCs removal)", "result": "about 40.9%±9.4%"},
      {"measurement": "TNF-α level in culture supernatant, APCCs without CD15+ cells", "setting": "TNF-α; APCCs without CD15+ cells", "result": "further elevated"},
      {"measurement": "TNF-α level in culture supernatant", "setting": "TNF-α; RCC APCCs, vs control", "result": "elevated"},
      {"measurement": "IFN-γ level in culture supernatant, APCCs without CD15+ cells", "setting": "IFN-γ; APCCs without CD15+ cells", "result": "further elevated"},
      {"measurement": "IFN-γ level in culture supernatant", "setting": "IFN-γ; RCC APCCs, vs control", "result": "elevated"},
      {"measurement": "TNF-α gene expression in CD4/CD8+ T cells, APCCs without CD15+ cells", "setting": "[2]; [4]", "result": "highest"},
      {"measurement": "TNF-α gene expression in CD4/CD8+ T cells", "setting": "[2]; [5]", "result": "enhanced"},
      {"measurement": "IFN-γ gene expression in CD4/CD8+ T cells, APCCs without CD15+ cells", "setting": "[3]; [4]", "result": "highest"},
      {"measurement": "IFN-γ gene expression in CD4/CD8+ T cells", "setting": "[3]; [5]", "result": "enhanced"}
    ]}
  ]
}
